Converted amounts (≈) assume the structure as drawn.
How the values were obtained:
Cryptococcus neoformans = experiment: Antifungal activity against Cryptococcus neoformans cgmcc 2.3161 after 72 hrs by serial dilution method; assay type: functional; details: cgmcc 2.3161, 72 h
Candida tropicalis = experiment: Antifungal activity against Candida tropicalis cgmcc 2.3739 after 24 hrs by serial dilution method; assay type: functional; details: cgmcc 2.3739, 24 h
Candida albicans [1] = experiment: Antifungal activity against Candida albicans CPCC 400523 after 24 hrs by serial dilution method; assay type: functional; details: CPCC 400523, 24 h
Aspergillus fumigatus = experiment: Antifungal activity against Aspergillus fumigatus cgmcc 3.7795 after 7 days by serial dilution method; assay type: functional; details: cgmcc 3.7795, 168 h
Candida albicans [2] = experiment: Antifungal activity against Candida albicans ATCC SC5314 after 24 hrs by serial dilution method; assay type: functional; details: SC5314, 24 h
Candida albicans [3] = experiment: Antifungal activity against fluconazole-resistant Candida albicans strain 103 after 24 hrs by serial dilution method; assay type: functional; details: Candida albicans, 103, 24 h
Candida albicans [4] = experiment: Antifungal activity against fluconazole-resistant Candida albicans strain 100 after 24 hrs by serial dilution method; assay type: functional; details: Candida albicans, 100, 24 h
[5] = Stability in human plasma assessed as parent compound remaining at 2 uM after 60 mins by LC-MS/MS analysis; assay type: ADME, cell-free; details: read-out: Stability
[6] = Stability in human plasma assessed as parent compound remaining at 2 uM after 120 mins by LC-MS/MS analysis; assay type: ADME, cell-free; details: read-out: Stability

Row | Structure (SMILES) | MIC (Cryptococcus neoformans) | MIC (Candida tropicalis) | MIC (Candida albicans [1]) | MIC (Aspergillus fumigatus) | MIC (Candida albicans [2]) | MIC (Candida albicans [3]) | MIC (Candida albicans [4]) | remaining at 1 h, 2 µM [5] | remaining at 2 h, 2 µM [6]
1 | CC(C)OC(=O)[C@H](Cn1ccnc1)NC(=O)c1nc2ccc(Br)cc2s1 | 2 µg/mL (≈ 4.57 µM) | 1 µg/mL (≈ 2.29 µM) | 0.5 µg/mL (≈ 1.14 µM) | > 64 µg/mL | 0.125 µg/mL (≈ 0.286 µM) | – | – | – | –
2 | CC(C)COC(=O)[C@H](Cn1ccnc1)NC(=O)c1cnc2ccccc2c1 | 64 µg/mL (≈ 175 µM) | 32 µg/mL (≈ 87.3 µM) | 64 µg/mL (≈ 175 µM) | 64 µg/mL (≈ 175 µM) | 64 µg/mL (≈ 175 µM) | – | – | – | –
3 | CC(C)COC(=O)[C@H](Cn1ccnc1)NC(=O)c1cc2ccccc2s1 | 1 µg/mL (≈ 2.69 µM) | 0.25 µg/mL (≈ 0.673 µM) | 1 µg/mL (≈ 2.69 µM) | 8 µg/mL (≈ 21.5 µM) | 0.5 µg/mL (≈ 1.35 µM) | – | – | – | –
4 | CC(C)OC(=O)[C@H](Cn1ccnc1)NC(=O)c1nc2ccccc2[nH]1 | 64 µg/mL (≈ 187 µM) | 64 µg/mL (≈ 187 µM) | 64 µg/mL (≈ 187 µM) | 64 µg/mL (≈ 187 µM) | 64 µg/mL (≈ 187 µM) | – | – | – | –
5 | CC(C)OC(=O)[C@H](Cn1ccnc1)NC(=O)c1cc2ccccc2n1C | 64 µg/mL (≈ 181 µM) | 0.5 µg/mL (≈ 1.41 µM) | 8 µg/mL (≈ 22.6 µM) | 64 µg/mL (≈ 181 µM) | 8 µg/mL (≈ 22.6 µM) | – | – | – | –
6 | CC(C)OC(=O)[C@H](Cn1ccnc1)NC(=O)c1cnc2ccccc2n1 | 64 µg/mL (≈ 181 µM) | 16 µg/mL (≈ 45.3 µM) | 64 µg/mL (≈ 181 µM) | 64 µg/mL (≈ 181 µM) | 64 µg/mL (≈ 181 µM) | – | – | – | –
7 | CC(C)COC(=O)[C@H](Cn1ccnc1)NC(=O)c1noc2c1CCc1ccccc1-2 | 4 µg/mL (≈ 9.79 µM) | 0.125 µg/mL (≈ 0.306 µM) | 0.5 µg/mL (≈ 1.22 µM) | 8 µg/mL (≈ 19.6 µM) | 0.125 µg/mL (≈ 0.306 µM) | 0.5 µg/mL (≈ 1.22 µM) | 1 µg/mL (≈ 2.45 µM) | – | –
8 | CC(C)OC(=O)[C@H](Cn1ccnc1)NC(=O)c1cnc2ccccc2c1 | 64 µg/mL (≈ 182 µM) | 32 µg/mL (≈ 90.8 µM) | 64 µg/mL (≈ 182 µM) | 64 µg/mL (≈ 182 µM) | 64 µg/mL (≈ 182 µM) | – | – | – | –
9 | CC(C)OC(=O)[C@H](Cn1ccnc1)NC(=O)c1cc2ccccc2o1 | 4 µg/mL (≈ 11.7 µM) | 0.5 µg/mL (≈ 1.46 µM) | 32 µg/mL (≈ 93.7 µM) | 32 µg/mL (≈ 93.7 µM) | 16 µg/mL (≈ 46.9 µM) | – | – | – | –
10 | CC(C)COC(=O)[C@H](Cn1ccnc1)NC(=O)c1ccc2c(c1)OCO2 | 64 µg/mL (≈ 178 µM) | 16 µg/mL (≈ 44.5 µM) | 64 µg/mL (≈ 178 µM) | 64 µg/mL (≈ 178 µM) | 64 µg/mL (≈ 178 µM) | – | – | – | –
11 | CC(C)COC(=O)[C@H](Cn1ccnc1)NC(=O)c1cc2ccccc2n1C | 4 µg/mL (≈ 10.9 µM) | 1 µg/mL (≈ 2.71 µM) | 8 µg/mL (≈ 21.7 µM) | 64 µg/mL (≈ 174 µM) | 8 µg/mL (≈ 21.7 µM) | – | – | – | –
12 | CC(C)OC(=O)[C@H](Cn1ccnc1)NC(=O)c1ccc2ncoc2c1 | 64 µg/mL (≈ 187 µM) | 32 µg/mL (≈ 93.5 µM) | 64 µg/mL (≈ 187 µM) | 64 µg/mL (≈ 187 µM) | 64 µg/mL (≈ 187 µM) | – | – | – | –
13 | CC(C)OC(=O)[C@H](Cn1ccnc1)NC(=O)c1cc2ccc(F)cc2[nH]1 | 8 µg/mL (≈ 22.3 µM) | 0.5 µg/mL (≈ 1.4 µM) | 32 µg/mL (≈ 89.3 µM) | 64 µg/mL (≈ 179 µM) | 32 µg/mL (≈ 89.3 µM) | – | – | – | –
14 | CC(C)OC(=O)[C@H](Cn1ccnc1)NC(=O)c1noc2c1CCCc1ccccc1-2 | 64 µg/mL (≈ 157 µM) | 1 µg/mL (≈ 2.45 µM) | 2 µg/mL (≈ 4.9 µM) | 64 µg/mL (≈ 157 µM) | 16 µg/mL (≈ 39.2 µM) | – | – | – | –
15 | CC(C)COC(=O)[C@H](Cn1ccnc1)NC(=O)c1cc2ccccc2o1 | 4 µg/mL (≈ 11.3 µM) | 0.25 µg/mL (≈ 0.703 µM) | 8 µg/mL (≈ 22.5 µM) | 32 µg/mL (≈ 90 µM) | 8 µg/mL (≈ 22.5 µM) | – | – | – | –
16 | CC(C)OC(=O)[C@H](Cn1ccnc1)NC(=O)c1ccc2c(c1)OCO2 | 64 µg/mL (≈ 185 µM) | 32 µg/mL (≈ 92.7 µM) | 64 µg/mL (≈ 185 µM) | 64 µg/mL (≈ 185 µM) | 64 µg/mL (≈ 185 µM) | – | – | – | –
17 | Cc1nc2ccc(C(=O)N[C@@H](Cn3ccnc3)C(=O)OC(C)C)cc2o1 | 64 µg/mL (≈ 180 µM) | 64 µg/mL (≈ 180 µM) | 64 µg/mL (≈ 180 µM) | 64 µg/mL (≈ 180 µM) | 64 µg/mL (≈ 180 µM) | – | – | – | –
18 | COc1ccc2c(c1)-c1onc(C(=O)N[C@@H](Cn3ccnc3)C(=O)OC(C)C)c1CC2 | 64 µg/mL (≈ 151 µM) | 2 µg/mL (≈ 4.71 µM) | 16 µg/mL (≈ 37.7 µM) | 64 µg/mL (≈ 151 µM) | 0.25 µg/mL (≈ 0.589 µM) | – | – | – | –
19 | CC(C)COC(=O)[C@H](Cn1ccnc1)NC(=O)c1noc2c1ccc1ccccc12 | 0.125 µg/mL (≈ 0.308 µM) | 0.125 µg/mL (≈ 0.308 µM) | 0.25 µg/mL (≈ 0.615 µM) | 16 µg/mL (≈ 39.4 µM) | 0.125 µg/mL (≈ 0.308 µM) | 2 µg/mL (≈ 4.92 µM) | 2 µg/mL (≈ 4.92 µM) | – | –
20 | COc1ccc2c(c1)CCc1c(C(=O)N[C@@H](Cn3ccnc3)C(=O)OC(C)C)noc1-2 | 64 µg/mL (≈ 151 µM) | 8 µg/mL (≈ 18.8 µM) | 4 µg/mL (≈ 9.42 µM) | 64 µg/mL (≈ 151 µM) | 0.25 µg/mL (≈ 0.589 µM) | – | – | – | –
21 | CC(C)OC(=O)[C@H](Cn1ccnc1)NC(=O)c1noc2c1ccc1ccccc12 | 0.25 µg/mL (≈ 0.637 µM) | 0.125 µg/mL (≈ 0.319 µM) | 0.25 µg/mL (≈ 0.637 µM) | 4 µg/mL (≈ 10.2 µM) | 0.125 µg/mL (≈ 0.319 µM) | 1 µg/mL (≈ 2.55 µM) | 2 µg/mL (≈ 5.1 µM) | 95.8% | 91.7%

Source: ChEMBL document CHEMBL4219262, “Design, synthesis and evaluation of benzoheterocycle analogues as potent antifungal agents targeting CYP51” (Bioorg Med Chem, 2018)
